The source of these data is ChEMBL document CHEMBL1926608, “Design, synthesis and in vitro antitumour activity of new heteroaryl ethylenes” (2012).

In the first experiment the test system is NCI-H226. Description: Cytotoxicity against human NCI-H226 cells after 72 hrs by MTT assay. Conditions: NCI-H226, 72 h. It is filed as functional. On the technique in general: Formazan colour is commonly taken as a measure of viable cells.
The term LC50 denotes the concentration lethal to half of the exposed cells or organisms. Low readings indicate greater toxicity, high ones lower toxicity. As for `CN(C)c1ccc(/C=C/c2cccc(/C=C/c3ccc(N(C)C)cc3)[n+]2C)cc1`, the LC50 was 13.8 µM.
Consider `CCCCN(CCCC)c1ccc(-c2ccc(/C=C/c3ccc4ccccc4[n+]3C)s2)s1`, for which the LC50 is 10 µM.
As to `C[n+]1c(/C=C/c2ccc(-c3ccccc3)s2)ccc2ccccc21`, the LC50 is 38 µM.
`C[n+]1c(/C=C/c2ccc(N(c3ccccc3)c3ccccc3)cc2)cccc1/C=C/c1ccc(N(c2ccccc2)c2ccccc2)cc1` gave an LC50 of 33.1 µM.

In the next experiment the test system is A549. Put plainly: Growth inhibition of human A549 cells after 72 hrs by MTT assay. Conditions: A549, 72 h. Type of experiment: functional.
What is called GI50 is the concentration giving 50% growth inhibition. Take `CN(C)c1ccc(/C=C/c2cc[n+](C)cc2)cc1`: the GI50 is 1.58 µM.
Turning to `Cn1cccc1/C=C/c1cccc[n+]1C`, the 50% growth inhibitory concentration (GI50) was 22.9 µM.
`CN(C)c1ccc(/C=C/c2cccc(/C=C/c3ccc(N(C)C)cc3)[n+]2C)cc1` gave a 50% growth inhibitory concentration (GI50) of 0.372 µM.
As to `Cn1cccc1/C=C/c1cc[n+](C)cc1`, the GI50 is 1.66 µM.
On to `CCCCN(CCCC)c1ccc(-c2ccc(/C=C/c3ccc4ccccc4[n+]3C)s2)s1`, for which the GI50 was 0.01 µM. This GI50 is about 170-fold lower than that of the compound before.
As for `C[n+]1c(/C=C/c2ccc(-c3ccccc3)s2)ccc2ccccc21`, it took 2 µM to inhibit growth by half (GI50).
Regarding `CN(C)c1ccc(/C=C/c2ccc3ccccc3[n+]2C)cc1`, the GI50 is 1.55 µM. The GI50 values of the last two compounds are within 1.5-fold of each other.
In turn, `C[n+]1c(/C=C/c2ccc(N(c3ccccc3)c3ccccc3)cc2)cccc1/C=C/c1ccc(N(c2ccccc2)c2ccccc2)cc1` showed a GI50 of 3.16 µM.
On the same count and under the same terms, next, `CCCCN(CCCC)c1ccc(-c2ccc(/C=C/c3cccc(/C=C/c4ccc(-c5ccc(N(CCCC)CCCC)s5)s4)[n+]3C)s2)s1`: 4.79 µM.
Take `CN(C)c1ccc(/C=C(\C#N)c2cccc[n+]2C)cc1`: the GI50 is 3.8 µM. This GI50 and that of the compound before are within 1.5-fold of each other.

The test system of a further experiment is NCI-H226. Description: Growth inhibition of human NCI-H226 cells after 72 hrs by MTT assay. Conditions: NCI-H226, 72 h. It is filed as functional.
In turn, `CN(C)c1ccc(/C=C/c2cc[n+](C)cc2)cc1` showed a GI50 of 10 µM. In other words, the double-digit micromolar range.
Regarding `Cn1cccc1/C=C/c1cccc[n+]1C`, the GI50 is 100 µM.
`CN(C)c1ccc(/C=C/c2cccc(/C=C/c3ccc(N(C)C)cc3)[n+]2C)cc1`: halving of growth (GI50) required 0.0447 µM.
`Cn1cccc1/C=C/c1cc[n+](C)cc1`: the GI50 is 100 µM.
Regarding `CCCCN(CCCC)c1ccc(-c2ccc(/C=C/c3ccc4ccccc4[n+]3C)s2)s1`, halving of growth (GI50) required 0.0457 µM.
The compound `C[n+]1c(/C=C/c2ccc(-c3ccccc3)s2)ccc2ccccc21` gave a concentration for 50% growth inhibition (GI50) of 1.45 µM.
As to `CN(C)c1ccc(/C=C/c2ccc3ccccc3[n+]2C)cc1`, growth was halved (GI50) at 0.631 µM.
As for `C[n+]1c(/C=C/c2ccc(N(c3ccccc3)c3ccccc3)cc2)cccc1/C=C/c1ccc(N(c2ccccc2)c2ccccc2)cc1`, the GI50 was 2 µM.
For `CCCCN(CCCC)c1ccc(-c2ccc(/C=C/c3cccc(/C=C/c4ccc(-c5ccc(N(CCCC)CCCC)s5)s4)[n+]3C)s2)s1`, the GI50 was 1 µM.
Consider `CN(C)c1ccc(/C=C(\C#N)c2cccc[n+]2C)cc1`, for which halving of growth (GI50) required 19.5 µM.

The subject of a further experiment is A549. Description: Cytotoxicity against human A549 cells after 72 hrs by MTT assay. Type of experiment: functional. The note with it: A549, 72 h, read-out: pLC50 (the source's name) (converted).
With `CN(C)c1ccc(/C=C/c2cccc(/C=C/c3ccc(N(C)C)cc3)[n+]2C)cc1`, the CC50 is 13.2 µM.
As to `CN(C)c1ccc(/C=C/c2ccc3ccccc3[n+]2C)cc1`, the CC50 is 70.8 µM.
Turning to `C[n+]1c(/C=C/c2ccc(N(c3ccccc3)c3ccccc3)cc2)cccc1/C=C/c1ccc(N(c2ccccc2)c2ccccc2)cc1`, the CC50 is 39.8 µM.
